Experiment in all cases: relative viability (nuclei count vs DMSO), 5 days (fraction); higher = more cells survive
Compound in experiment [1]: C/C(=N\NC(=S)N1CCC1)/C2=CC=CC=N2 + C[C@@H](Oc1cc(-c2cnn(C3CCNCC3)c2)cnc1N)c1c(Cl)ccc(F)c1Cl [Crizotinib] (partner 1 µM)
In short, it runs like this: (§1)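 Lung cancer cell lines were seeded in 1536-well plates and dosed by pin tool the next day, with either a single drug or a fixed anchor-drug dose combined with five library-drug doses (not always all listed) spaced in √10 steps. Five days later, one step fixed the cells and stained their nuclei (final 0.05% Triton X-100, 1% formaldehyde, 1 ug/ml Hoechst), and nuclei were counted on 4× images. Relative viability is the nuclei count in treated wells divided by the count in vehicle wells, and each value is the median of duplicate plates.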

Compound in experiment [2]: C/C(=N\NC(=S)N1CCC1)/C2=CC=CC=N2 + Cc1nc(Nc2ncc(C(=O)Nc3c(C)cccc3Cl)s2)cc(N2CCN(CCO)CC2)n1 [Dasatinib] (partner 0.075 µM)
The procedure, abridged:
as §1

Compound in experiment [3]: C/C(=N\NC(=S)N1CCC1)/C2=CC=CC=N2 + O=C(CCCCCCC(=O)Nc1ccccc1)NO [Vorinostat] (partner 1 µM)
The procedure, abridged: as §1

Compound in experiment [4]: C/C(=N\NC(=S)N1CCC1)/C2=CC=CC=N2 + CC1(C)CCC(c2ccc(Cl)cc2)=C(CN2CCN(c3ccc(C(=O)NS(=O)(=O)c4ccc(N[C@H](CCN5CCOCC5)CSc5ccccc5)c(S(=O)(=O)C(F)(F)F)c4)cc3)CC2)C1 [Navitoclax] (partner 0.5 µM)
The procedure, abridged: as §1

On to NCI-H647, for which the relative viability in experiment [1] (first compound 0.05 µM) came out at 0.202; in experiment [1] (first compound 0.1581 µM) it was 0.122; in experiment [1] (first compound 0.5 µM), 0.162; in experiment [1] (first compound 1.581 µM), 0.096; in experiment [1] (first compound 5 µM) it was 0.104; in experiment [2] (first compound 0.05 µM), 0.0543. Also, the relative viability in experiment [2] (first compound 0.1581 µM) was determined as 0.0651; in experiment [2] (first compound 0.5 µM), 0.0453; in experiment [2] (first compound 1.581 µM) it was 0.051; in experiment [2] (first compound 5 µM), 0.0532; in experiment [3] (first compound 0.05 µM), 0.115; in experiment [3] (first compound 0.1581 µM), 0.0948. Moreover, the relative viability in experiment [3] (first compound 0.5 µM) was 0.106; in experiment [3] (first compound 1.581 µM), 0.0935; in experiment [3] (first compound 5 µM) it was 0.102; in experiment [4] (first compound 0.05 µM) it was 0.133; in experiment [4] (first compound 0.1581 µM) it was 0.129; in experiment [4] (first compound 0.5 µM) it was 0.117. For the same cell line, the relative viability was 0.123 in experiment [4] (first compound 1.581 µM) and 0.116 in experiment [4] (first compound 5 µM).

As to SW 1573, the relative viability was determined as 0.11 in experiment [1] (first compound 0.05 µM); 0.123 in experiment [1] (first compound 0.1581 µM); 0.138 in experiment [1] (first compound 0.5 µM); 0.102 in experiment [1] (first compound 1.581 µM); 0.0709 in experiment [1] (first compound 5 µM); 0.0654 in experiment [2] (first compound 0.05 µM). Moreover, the relative viability in experiment [2] (first compound 0.1581 µM) stood at 0.0445; in experiment [2] (first compound 0.5 µM) it was 0.0863; in experiment [2] (first compound 1.581 µM), 0.0351; in experiment [2] (first compound 5 µM), 0.0432; in experiment [3] (first compound 0.05 µM), 0.0949; in experiment [3] (first compound 0.1581 µM), 0.115. Also, the relative viability is 0.145 in experiment [3] (first compound 0.5 µM); 0.0758 in experiment [3] (first compound 1.581 µM); 0.0799 in experiment [3] (first compound 5 µM); 0.138 in experiment [4] (first compound 0.05 µM); 0.0732 in experiment [4] (first compound 0.1581 µM); 0.0916 in experiment [4] (first compound 0.5 µM). The relative viability was found to be 0.0833 in experiment [4] (first compound 1.581 µM) and 0.0479 in experiment [4] (first compound 5 µM).

In the case of NCI-H1651, the relative viability turned out to be 0.148 in experiment [1] (first compound 0.05 µM); 0.132 in experiment [1] (first compound 0.1581 µM); 0.129 in experiment [1] (first compound 0.5 µM); 0.112 in experiment [1] (first compound 1.581 µM); 0.126 in experiment [1] (first compound 5 µM); 0.195 in experiment [2] (first compound 0.05 µM). In addition, the relative viability was found to be 0.174 in experiment [2] (first compound 0.1581 µM); 0.126 in experiment [2] (first compound 0.5 µM); 0.0657 in experiment [2] (first compound 1.581 µM); 0.0655 in experiment [2] (first compound 5 µM); 0.116 in experiment [3] (first compound 0.05 µM); 0.116 in experiment [3] (first compound 0.1581 µM). The relative viability in experiment [3] (first compound 0.5 µM) stood at 0.109; in experiment [3] (first compound 1.581 µM), 0.0595; in experiment [3] (first compound 5 µM), 0.0665; in experiment [4] (first compound 0.05 µM), 0.0866; in experiment [4] (first compound 0.1581 µM), 0.0844; in experiment [4] (first compound 0.5 µM), 0.0783. Moreover, the relative viability in experiment [4] (first compound 1.581 µM) stood at 0.0702; in experiment [4] (first compound 5 µM), 0.081.

Take NCI-H2023: the relative viability in experiment [1] (first compound 0.05 µM) turned out to be 0.1; in experiment [1] (first compound 0.1581 µM) it was 0.0841; in experiment [1] (first compound 0.5 µM), 0.08; in experiment [1] (first compound 1.581 µM), 0.0545; in experiment [1] (first compound 5 µM), 0.0727; in experiment [2] (first compound 0.05 µM), 0.0588. Also, the relative viability in experiment [2] (first compound 0.1581 µM) came to 0.071; in experiment [2] (first compound 0.5 µM), 0.0685; in experiment [2] (first compound 1.581 µM) it was 0.0516; in experiment [2] (first compound 5 µM), 0.0624; in experiment [3] (first compound 0.05 µM), 0.082; in experiment [3] (first compound 0.1581 µM), 0.0635. In addition, the relative viability in experiment [3] (first compound 0.5 µM) came out at 0.0543; in experiment [3] (first compound 1.581 µM), 0.0492; in experiment [3] (first compound 5 µM), 0.043; in experiment [4] (first compound 0.05 µM), 0.0701; in experiment [4] (first compound 0.1581 µM), 0.096; in experiment [4] (first compound 0.5 µM) it was 0.0791. In addition, the relative viability was 0.0888 in experiment [4] (first compound 1.581 µM) and 0.0996 in experiment [4] (first compound 5 µM).

The record behind these values is the supplement of paper PMC10307832.
